Data reported in US20250171437A1 (Agios Pharmaceuticals,Inc., priority 2022, published 2025).

Target: T1, human PAH with the R408W mutation (A375 R408W cells) (Homo sapiens, UniProt P00439, R408W)
T1 construct: expressed in transfected cells
T1 sequence (P00439 1-452 R408W): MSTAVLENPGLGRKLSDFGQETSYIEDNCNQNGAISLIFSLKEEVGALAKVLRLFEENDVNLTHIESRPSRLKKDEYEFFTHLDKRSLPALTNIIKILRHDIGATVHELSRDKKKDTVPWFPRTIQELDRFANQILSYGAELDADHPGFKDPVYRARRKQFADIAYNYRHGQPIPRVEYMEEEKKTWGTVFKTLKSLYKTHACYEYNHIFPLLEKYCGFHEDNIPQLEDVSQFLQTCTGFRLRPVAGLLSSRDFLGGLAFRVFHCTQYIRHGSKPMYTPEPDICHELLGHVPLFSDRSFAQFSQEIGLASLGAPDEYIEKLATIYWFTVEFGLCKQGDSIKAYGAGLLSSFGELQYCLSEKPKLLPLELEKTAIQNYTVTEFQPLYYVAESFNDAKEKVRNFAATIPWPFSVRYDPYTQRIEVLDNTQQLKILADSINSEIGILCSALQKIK
Assay: Cell Based Phenylalanine Flux Assay
Settings: A375 R408W cells; 24 hrs with compound, then 20 μM sepiapterin and 800 μM 13C9,15N-Phenylalanine for 4 hours; 13C-Tyrosine by LC-MS; average where tested multiple times
Method in brief: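 Puromycin-selected A375 line, lentiviral hPAH R408W; cmpd 24 h, 37 °C, 5% CO2, 0.5% DMSO; then 20 μM sepiapterin + 800 μM 13C9,15N-Phe, 4 h; media extracted in 80% MeCN; 13C-Tyr by LC-MS; AC50 from 10-pt curves.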

SMILES	AC50 [µM]
Cc1cccc2nc([C@@H]3c4nc[nH]c4CCN3C(=O)c3cnco3)oc12 [Example 611, (S)-(4-(7-methylbenzo[d]oxazol-2-yl)-6,7-dihydro-1H-imidazo[4,5-c]pyridin-5(4H)-yl)(oxazol-5-yl)methanone]	0.5 to 1
Cc1cccc2nc([C@H]3c4nc[nH]c4CCN3C(=O)c3cnco3)oc12 [Example 612, (R)-(4-(7-methylbenzo[d]oxazol-2-yl)-6,7-dihydro-1H-imidazo[4,5-c]pyridin-5(4H)-yl)(oxazol-5-yl)methanone]	1 to 5
Cc1cccc2nc([C@@H]3c4nc[nH]c4CCN3C(=O)c3nc(C(F)F)nn3C)oc12 [Example 613, (S)-(3-(difluoromethyl)-1-methyl-1H-1,2,4-triazol-5-yl)(4-(7-methylbenzo[d]oxazol-2-yl)-6,7-dihydro-1H-imidazo[4,5-c]pyridin-5(4H)-yl)methanone]	≤ 0.5
Cc1cccc2nc([C@H]3c4nc[nH]c4CCN3C(=O)c3nc(C(F)F)nn3C)oc12 [Example 614, (R)-(3-(difluoromethyl)-1-methyl-1H-1,2,4-triazol-5-yl)(4-(7-methylbenzo[d]oxazol-2-yl)-6,7-dihydro-1H-imidazo[4,5-c]pyridin-5(4H)-yl)methanone]	1 to 5
COc1ccc(-c2nc(C(F)F)c(C(=O)N3CCc4[nH]cnc4[C@@H]3c3nc4cccc(F)c4o3)o2)nc1 [Example 615, (R)-(4-(difluoromethyl)-2-(5-methoxypyridin-2-yl)oxazol-5-yl)(4-(7-fluorobenzo[d]oxazol-2-yl)-6,7-dihydro-1H-imidazo[4,5-c]pyridin-5(4H)-yl)methanone]	≤ 0.5
COc1ccc(-c2nc(C(F)F)c(C(=O)N3CCc4[nH]cnc4[C@H]3c3nc4cccc(F)c4o3)o2)nc1 [Example 616, (S)-(4-(difluoromethyl)-2-(5-methoxypyridin-2-yl)oxazol-5-yl)(4-(7-fluorobenzo[d]oxazol-2-yl)-6,7-dihydro-1H-imidazo[4,5-c]pyridin-5(4H)-yl)methanone]	≤ 0.5
CN1CCN(c2nc(C(F)F)c(C(=O)N3CCc4[nH]cnc4[C@H]3c3nc4cccc(F)c4o3)o2)CC1 [Example 617, (S)-(4-(difluoromethyl)-2-(4-methylpiperazin-1-yl)oxazol-5-yl)(4-(7-fluorobenzo[d]oxazol-2-yl)-6,7-dihydro-1H-imidazo[4,5-c]pyridin-5(4H)-yl)methanone]	≤ 0.5
CN1CCN(c2nc(C(F)F)c(C(=O)N3CCc4[nH]cnc4[C@@H]3c3nc4cccc(F)c4o3)o2)CC1 [Example 618, (R)-(4-(difluoromethyl)-2-(4-methylpiperazin-1-yl)oxazol-5-yl)(4-(7-fluorobenzo[d]oxazol-2-yl)-6,7-dihydro-1H-imidazo[4,5-c]pyridin-5(4H)-yl)methanone]	0.5 to 1
CC(F)(F)c1ncoc1C(=O)N1CCc2[nH]cnc2[C@@H]1c1nc2cccc(F)c2o1 [Example 619, (R)-(4-(1,1-difluoroethyl)oxazol-5-yl)(4-(7-fluorobenzo[d]oxazol-2-yl)-6,7-dihydro-1H-imidazo[4,5-c]pyridin-5(4H)-yl)methanone]	1 to 5
CC(F)(F)c1ncoc1C(=O)N1CCc2[nH]cnc2[C@H]1c1nc2cccc(F)c2o1 [Example 620, (S)-(4-(1,1-difluoroethyl)oxazol-5-yl)(4-(7-fluorobenzo[d]oxazol-2-yl)-6,7-dihydro-1H-imidazo[4,5-c]pyridin-5(4H)-yl)methanone]	≤ 0.5
COc1cccc2oc([C@@H]3c4nc[nH]c4CCN3C(=O)c3cnco3)nc12 [Example 621, (S)-(4-(4-methoxybenzo[d]oxazol-2-yl)-6,7-dihydro-1H-imidazo[4,5-c]pyridin-5(4H)-yl)(oxazol-5-yl)methanone]	0.5 to 1
COc1cccc2oc([C@H]3c4nc[nH]c4CCN3C(=O)c3cnco3)nc12 [Example 622, (R)-(4-(4-methoxybenzo[d]oxazol-2-yl)-6,7-dihydro-1H-imidazo[4,5-c]pyridin-5(4H)-yl)(oxazol-5-yl)methanone]	1 to 5
COc1cccc2oc([C@H]3c4nc[nH]c4CCN3C(=O)c3nnc(-c4ccccn4)o3)nc12 [Example 623, (R)-(4-(4-methoxybenzo[d]oxazol-2-yl)-6,7-dihydro-1H-imidazo[4,5-c]pyridin-5(4H)-yl)(5-(pyridin-2-yl)-1,3,4-oxadiazol-2-yl)methanone]	1 to 5

Other lines, results leading:

AC50 [µM]	SMILES
≤ 0.5	COc1cccc2oc([C@@H]3c4nc[nH]c4CCN3C(=O)c3nnc(-c4ccccn4)o3)nc12 [Example 624, (S)-(4-(4-methoxybenzo[d]oxazol-2-yl)-6,7-dihydro-1H-imidazo[4,5-c]pyridin-5(4H)-yl)(5-(pyridin-2-yl)-1,3,4-oxadiazol-2-yl)methanone]
1 to 5	COc1cccc2oc([C@H]3c4nc[nH]c4CCN3C(=O)c3nnc(-c4cnn(C)c4)o3)nc12 [Example 625, (R)-(4-(4-methoxybenzo[d]oxazol-2-yl)-6,7-dihydro-1H-imidazo[4,5-c]pyridin-5(4H)-yl)(5-(1-methyl-1H-pyrazol-4-yl)-1,3,4-oxadiazol-2-yl)methanone]
≤ 0.5	COc1cccc2oc([C@@H]3c4nc[nH]c4CCN3C(=O)c3nnc(-c4cnn(C)c4)o3)nc12 [Example 626, (S)-(4-(4-methoxybenzo[d]oxazol-2-yl)-6,7-dihydro-1H-imidazo[4,5-c]pyridin-5(4H)-yl)(5-(1-methyl-1H-pyrazol-4-yl)-1,3,4-oxadiazol-2-yl)methanone]
1 to 5	O=C(c1nnc(-c2cnccn2)o1)N1CCc2[nH]cnc2[C@@H]1c1nc2cc(F)ccc2o1 [Example 627, (R)-(4-(5-fluorobenzo[d]oxazol-2-yl)-6,7-dihydro-1H-imidazo[4,5-c]pyridin-5(4H)-yl)(5-(pyrazin-2-yl)-1,3,4-oxadiazol-2-yl)methanone]
1 to 5	O=C(c1nnc(-c2cnccn2)o1)N1CCc2[nH]cnc2[C@H]1c1nc2cc(F)ccc2o1 [Example 628, (S)-(4-(5-fluorobenzo[d]oxazol-2-yl)-6,7-dihydro-1H-imidazo[4,5-c]pyridin-5(4H)-yl)(5-(pyrazin-2-yl)-1,3,4-oxadiazol-2-yl)methanone]
0.5 to 1	O=C(c1nnc(-c2ccccn2)o1)N1CCc2[nH]cnc2[C@H]1c1nc2c(F)c(F)ccc2o1 [Example 629, (S)-(4-(4,5-difluorobenzo[d]oxazol-2-yl)-6,7-dihydro-1H-imidazo[4,5-c]pyridin-5(4H)-yl)(5-(pyridin-2-yl)-1,3,4-oxadiazol-2-yl)methanone]
1 to 5	O=C(c1nnc(-c2ccccn2)o1)N1CCc2[nH]cnc2[C@@H]1c1nc2c(F)c(F)ccc2o1 [Example 630, (R)-(4-(4,5-difluorobenzo[d]oxazol-2-yl)-6,7-dihydro-1H-imidazo[4,5-c]pyridin-5(4H)-yl)(5-(pyridin-2-yl)-1,3,4-oxadiazol-2-yl)methanone]
≤ 0.5	O=C(c1oc(-c2ccc(F)cn2)nc1C(F)F)N1CCc2[nH]cnc2[C@@H]1c1nc2cccc(F)c2o1 [Example 631, (R)-(4-(difluoromethyl)-2-(5-fluoropyridin-2-yl)oxazol-5-yl)(4-(7-fluorobenzo[d]oxazol-2-yl)-6,7-dihydro-1H-imidazo[4,5-c]pyridin-5(4H)-yl)methanone]
